# Data: ChEMBL document CHEMBL1142207, “Aspirin antagonism in isoniazid treatment of tuberculosis in mice” (2007)
# Active and inactive are the calls of the source. No cut-off for these calls is given here.
# Legend:
# [1] = test system: Mycobacterium tuberculosis; assay: Clearance of Mycobacterium tuberculosis H37Rv in BALB/c mouse lung at 25 mg/kg, po five times/week after 1 month relative to control; format: functional, organism-based; set-up: dose 25 mg/kg
# [2] = test system: Mycobacterium tuberculosis; assay: Clearance of Mycobacterium tuberculosis H37Rv in BALB/c mouse spleen at 25 mg/kg, po five times/week after 1 month relative to control; format: functional, organism-based; set-up: dose 25 mg/kg
# [3] = test system: Mycobacterium tuberculosis; assay: Decrease in spleen infection of BALB/c mouse infected with Mycobacterium tuberculosis H37Rv at 40 mg/kg, po five times/week after 1 month relative to control; format: functional
# [4] = test system: Mycobacterium tuberculosis; assay: Decrease in spleen infection of BALB/c mouse infected with Mycobacterium tuberculosis H37Rv at 10 mg/kg, po five times/week after 1 month relative to control; format: functional
# [5] = test system: Mycobacterium tuberculosis; assay: Decrease in spleen infection of BALB/c mouse infected with Mycobacterium tuberculosis H37Rv at 20 mg/kg, po five times/week after 1 month relative to control; format: functional
Compound,Activity [1],Activity [2],Log10 cfu [3],Log10 cfu [4],Log10 cfu [5]
NNC(=O)c1ccncc1,Active,Active,–,–,–
CC(=O)Oc1ccccc1C(=O)O [ASPIRIN],–,–,4.38,3.48,4.55
